Measured values taken from article PMC8962522, “Direct interaction of TrkA/CD44v3 is essential for NGF-promoted aggressiveness of breast cancer cells” (Journal of Experimental & Clinical Cancer Research : CR, 2022).

Legend:
[1] = system: RhoA in MDA-MB-231 cells expressing kinase-dead TrkA; assay: Ratiometric FRET RhoA activation, kinase-dead TrkA cells; type: cell-based; details: for relocation of activated RhoA to the migration front / local RhoA activation, in words: 25 min NGF, relocation observed with scramble peptide
Experimental: MDA-MB-231 native or KD cells were seeded (5000 cells/well; ovn, 37 °C) in a chambered coverglass system (Lab-Tek®) coated with a type I collagen matrix (100 μg/mL; Corning). These cells were transfected using the pBabe-puro-RhoA plasmid (0.15 μg; Addgene plasmid #12602) diluted in a buffer solution (JetOPTIMUS® buffer) and a transfection agent (TA; 10 min). The mixture was incorporated into the culture medium (4 h; 37 °C). Two to three hours before image acquisition, the cells expressing the RhoA biosensor were starved in fresh EMEM containing 0.1% FBS and no phenol red. During image acquisition, the cells were maintained at 37 °C and with 5% CO2 in an incubation chamber installed under a microscope. Images were collected using a ZEISS LSM 880 confocal microscope with a plan-apochromat 63×/1.4 oil differential interference contrast (DIC) objective. The argon laser was tuned to emit 458 nm and 514 nm laser lines through a 470 to 500 nm bandpass emission filter (BP470–500) for CFP detection and a 530 nm longpass emission filter (LP530) for YFP detection. The emission of the CFP, FRET and YFP channels was recorded. The fluorescence emission ratios were computed using ImageJ software, which was also used to generate a report showing the FRET efficiency and intensity signal for each channel.
To further elucidate the mechanism of action of CD44v3 mimetic peptide 4, we studied its effect on the TrkA signaling pathway. […] Additionally, to confirm that this effect was independent of TrkA phosphorylation, we measured RhoA activation in MDA-MB-231 cells expressing dead TrkA kinase, which cannot be phosphorylated (Fig. 5D). […]
Fig. 5 CD44v3 is implicated in the phospho-TrkA-independent activation of RhoA GTPase. Phosphorylation of TrkA was measured in the presence of a scramble peptide or CD44v3 mimetic peptide 4 (P4) in the presence or absence of NGF (A). […] Phosphorylation of TrkA and downstream Akt in wild-type MDA-MB-231 and MDA-MB-231 cells expressing kinase-dead TrkA, as determined by western blotting (D). […]

[2] = system: MDA-MB-231 xenograft tumors; assay: MDA-MB-231 xenograft tumor growth in SCID mice; type: in vivo; details: injected near the tumor five times in a 3-day interval, from mean tumor volume 100 mm^3; versus PBS; 10 mice per group
Experimental: MDA-MB-231 cells (2 × 10^6) were subcutaneously injected into the flanks of six-week-old female SCID mice. One month after injection, the mice were randomized into 2 groups and injected near the tumor with CD44v3 mimetic peptide 4 (P4) or not (control) five times in a 3-day interval. Tumor volume was determined throughout the experiment by measuring the length (l) and width (w) and was calculated as π/6 × l × w × […]. Animals were sacrificed using isoflurane anesthesia when the tumors reached a similar size, and the organs were immediately removed and stored in liquid nitrogen.
To assess the role of TrkA/CD44v3 in vivo, SCID mice were injected with MDA-MB-231 cells to generate xenografts. Primary tumor development and metastasis (to the lung, brain and liver) were analyzed (Fig. 6). […] The development of primary tumors was measured throughout the experiments. […] We also assessed the metastatic burden. […] Micrometastases were detected at the end of the experiment by PCR of human microglobulin in xenograft mice treated with or without the CD44v3 mimetic peptide (Fig. 6E). […]
Fig. 6 CD44v3 mimetic peptide 4 blocks MDA-MB-231 tumor growth and metastasis. […] Body weight (B) and tumor volume (C) were measured following CD44v3 mimetic peptide administration (10 mice per group). […]

IDDDEDFISST [Peptide 4, mimetic peptide 4 (…) corresponding to the C-terminal region of CD44v3]
relocation of activated RhoA to the migration front / local RhoA activation, in words ([1]; not with peptide 4, listed as CD44v3 mimetic peptide 4): relocation of activated RhoA to the migration front of the control cells with the scramble peptide after 25 min of NGF treatment but not with CD44v3 mimetic peptide 4 | relocation of activated RhoA to the migration front / local RhoA activation, in words ([1]; not with peptide 4, listed as P4): impedes local RhoA activation independent of TrkA phosphorylation | NGF-induced increase in proportion of active RhoA, in words ([1]; 45 min NGF, statement: increased with scramble peptide, not with peptide 4): NGF increased the proportion of active RhoA after 45 min in the presence of the scramble peptide (Fig. 5E) but not CD44v3 mimetic peptide 4 | tumor growth (in words) [2]: significantly inhibited the growth of MDA-MB-231 cells in xenograft tumors
